Calls of active or inactive are those of the source. The calls are words filed in the database; no cut-off is given here.
Experiments:
HeLa [1] = test: Induction of apoptosis in human HeLa cells assessed as increase in caspase-8 expression at 10 to 15 uM by Western blotting analysis relative to control; assay type: functional, cell-based
HeLa [2] = test: Induction of apoptosis in human HeLa cells assessed as dead cells at 10 uM after 12 hrs by Anexin-V-FITC/propidium iodide staining-based flow cytometry (reference value: 1.40%); assay type: functional
HeLa [3] = test: Induction of apoptosis in human HeLa cells assessed as late apoptotic cells at 10 uM after 12 hrs by Anexin-V-FITC/propidium iodide staining-based flow cytometry (reference value: 0.04%); assay type: functional
HeLa [4] = test: Induction of apoptosis in human HeLa cells assessed as apoptosis ratio at 15 uM after 12 hrs by Anexin-V-FITC/propidium iodide staining-based flow cytometry (reference value: 1.44%); assay type: functional
HeLa [5] = test: Induction of apoptosis in human HeLa cells assessed as early apoptotic cells at 15 uM after 12 hrs by Anexin-V-FITC/propidium iodide staining-based flow cytometry (reference value: 1.40%); assay type: functional
HeLa [6] = test: Induction of cytochrome C release in human HeLa cells assessed as nuclei conglomeration at 10 to 15 uM after 12 hrs by fluorescence microscopy relative to control; assay type: functional, cell-based
HeLa [7] = test: Cell cycle arrest in human HeLa cells assessed as accumulation at S phase at 15 uM after 48 hrs by propidium iodide stainin-based flow cytometry (reference value: 67.72%); assay type: functional
HeLa [8] = test: Induction of apoptosis in human HeLa cells assessed as increase in cytochrome c expression at 10 to 15 uM by Western blotting analysis relative to control; assay type: functional, cell-based
HeLa [9] = test: Cell cycle arrest in human HeLa cells assessed as accumulation at G1 phase at 15 uM after 48 hrs by propidium iodide stainin-based flow cytometry (reference value: 31.44%); assay type: functional
HeLa [10] = test: Induction of apoptosis in human HeLa cells assessed as viable cells at 10 uM after 12 hrs by Anexin-V-FITC/propidium iodide staining-based flow cytometry (reference value: 97.2%); assay type: functional; details: read-out: Activity
HeLa [11] = test: Induction of apoptosis in human HeLa cells assessed as caspase-3 activation by spectrophotometry relative to control; assay type: functional, cell-based; details: TDE = time-dependent effect
HeLa [12] = test: Induction of apoptosis in human HeLa cells assessed as caspase-9 activation by spectrophotometry relative to control relative to control; assay type: functional, cell-based; details: TDE = time-dependent effect
HeLa [13] = test: Induction of apoptosis in human HeLa cells assessed as viable cells at 15 uM after 12 hrs by Anexin-V-FITC/propidium iodide staining-based flow cytometry (reference value: 97.2%); assay type: functional; details: read-out: Activity
HeLa [14] = test: Cytotoxicity against human HeLa cells after 48 hrs by MTT assay; assay type: functional, cell-based
HeLa [15] = test: Induction of apoptosis in human HeLa cells assessed as change in mitochondrial membrane potential at 15 uM after 12 to 24 hrs by JC-1 staining-based assay relative to control; assay type: functional, cell-based
NCI-H460 = test: Cytotoxicity against human NCI-H460 cells after 48 hrs by MTT assay; assay type: functional, cell-based; details: NCI-H460, 48 h
HeLa [16] = test: Cell cycle arrest in human HeLa cells assessed as accumulation at G1 phase at 10 uM after 48 hrs by propidium iodide stainin-based flow cytometry (reference value: 31.44%); assay type: functional
HeLa [17] = test: Induction of apoptosis in human HeLa cells assessed as chromatin fragmentation at 15 uM after 12 to 24 hrs by acridine orange/ethidium bromide staining-based assay relative to control; assay type: functional, cell-based
HeLa [18] = test: Induction of apoptosis in human HeLa cells assessed as early apoptotic cells at 10 uM after 12 hrs by Anexin-V-FITC/propidium iodide staining-based flow cytometry (reference value: 1.40%); assay type: functional
HeLa [19] = test: Induction of apoptosis in human HeLa cells assessed as chromatin condensation at 15 uM after 12 to 24 hrs by acridine orange/ethidium bromide staining-based assay; assay type: functional, cell-based
HeLa [20] = test: Induction of apoptosis in human HeLa cells at 15 uM after 12 to 24 hrs by Hoechst 33258 staining-based assay relative to control; assay type: functional, cell-based
HeLa [21] = test: Induction of apoptosis in human HeLa cells assessed as DNA fragmentation at 15 uM after 12 to 24 hrs by TUNEL assay relative to control; assay type: functional, cell-based
HeLa [22] = test: Induction of apoptosis in human HeLa cells assessed as increase in Bax expression at 10 to 15 uM by Western blotting analysis relative to control; assay type: functional, cell-based
HeLa [23] = test: Cell cycle arrest in human HeLa cells assessed as accumulation at G2 phase at 10 uM after 48 hrs by propidium iodide stainin-based flow cytometry (reference value: 5.84%); assay type: functional
HeLa [24] = test: Induction of cytochrome C release in human HeLa cells assessed as karyopyknosis at 10 to 15 uM after 12 hrs by fluorescence microscopy relative to control; assay type: functional, cell-based
HeLa [25] = test: Induction of apoptosis in human HeLa cells assessed as late apoptotic cells at 15 uM after 12 hrs by Anexin-V-FITC/propidium iodide staining-based flow cytometry (reference value: 0.04%); assay type: functional
[26] = Cytotoxicity against human HL7702 cells after 48 hrs by MTT assay; assay type: functional, cell-based; details: L02, 48 h
HeLa [27] = test: Induction of apoptosis in human HeLa cells assessed as apoptosis ratio at 10 uM after 12 hrs by Anexin-V-FITC/propidium iodide staining-based flow cytometry (reference value: 1.44%); assay type: functional
HeLa [28] = test: Cell cycle arrest in human HeLa cells assessed as accumulation at S phase at 10 uM after 48 hrs by propidium iodide stainin-based flow cytometry (reference value: 67.72%); assay type: functional
HeLa [29] = test: Induction of apoptosis in human HeLa cells assessed as increase in caspase-3 expression at 10 to 15 uM by Western blotting analysis relative to control; assay type: functional, cell-based
HeLa [30] = test: Induction of apoptosis in human HeLa cells assessed as reduction in Bcl2 expression by Western blotting analysis relative to control; assay type: functional, cell-based
HeLa [31] = test: Induction of apoptosis in human HeLa cells assessed as dead cells at 15 uM after 12 hrs by Anexin-V-FITC/propidium iodide staining-based flow cytometry (reference value: 1.40%); assay type: functional
HeLa [32] = test: Cell cycle arrest in human HeLa cells assessed as accumulation at G2 phase at 15 uM after 48 hrs by propidium iodide stainin-based flow cytometry (reference value: 5.84%); assay type: functional
HeLa [33] = test: Induction of apoptosis in human HeLa cells assessed as ROS generation at 10 to 15 uM after 12 hrs by DCF-Da staining-based fluorescence microscopy relative to control; assay type: functional, cell-based
MGC-803 = test: Cytotoxicity against human MGC803 cells after 48 hrs by MTT assay; assay type: functional, cell-based; details: MGC-803, 48 h

What does the source list for `CC(C)c1ccc2c(c1)C(=O)C[C@H]1[C@](C)(C(=O)N[C@@H](Cc3ccccc3)C(=O)Nc3ccccc3Cl)CCC[C@]21C`?
Activity (HeLa [1]): Active; Activity (HeLa [2]): 0.677%; Activity (HeLa [3]): 6.93%; Activity (HeLa [4]): 34.5%; Activity (HeLa [5]): 21.8%; Activity (HeLa [6]): Active; Activity (HeLa [7]): 83.05%; Activity (HeLa [8]): Active; Activity (HeLa [9]): 15.49%; viability at 10 µM (HeLa [10]): 78.8%; Activity (HeLa [11]): tde; Activity (HeLa [12]): tde; viability at 15 µM (HeLa [13]): 64%; IC50 (HeLa [14]): 7.76 µM; Activity (HeLa [15]): Active; IC50 (NCI-H460): 24.3 µM; Activity (HeLa [16]): 27.79%; Activity (HeLa [17]): Active; Activity (HeLa [18]): 13.6%; Activity (HeLa [19]): Active; Activity (HeLa [20]): Active; Activity (HeLa [21]): Active; Activity (HeLa [22]): Active; Activity (HeLa [23]): 4.8%; Activity (HeLa [24]): Active; Activity (HeLa [25]): 13.7%; IC50 [26]: 53.8 µM; Activity (HeLa [27]): 20.53%; Activity (HeLa [28]): 67.41%; Activity (HeLa [29]): Active; Activity (HeLa [30]): Dose-dependent effect; Activity (HeLa [31]): 0.612%; Activity (HeLa [32]): 1.47%; Activity (HeLa [33]): Active; IC50 (MGC-803): 9.7 µM

— ChEMBL document CHEMBL3352110, “Design, synthesis and in vitro evaluation of novel dehydroabietic acid derivatives containing a dipeptide moiety as potential anticancer agents” (Eur J Med Chem, 2015)
